# Measured values reported in patent US20130296370A1, “COMPOSITION COMPRISING A PHOTOACTIVATABLE LARVICIDE” (UNIVERSITA DEGLI STUDI DI PADOVA, priority 2010, published 2013).
# Key:
# [1] = C12 photo-bleaching in water; type: physicochemical; conditions: free porphyrin in water; 1 hour irradiation, visible light 150 mW/cm^2
# Procedure: Moreover, with the aim to determine the level of degradation of the free porphyrin in the water after exposure to sunlight, the rate of C12 photo-bleaching was followed spectrophotometrically by measuring the porphyrin absorption spectrum in the 350-700 nm range upon exposure to visible light at a fluence rate of 150 mW/cm^2. After 1 hour irradiation the porphyrin concentration decreased up to 50%.
# An. stephensi = assay: Laboratory-scale tray larvicide test; type: in vivo; conditions: carrier mouse food; 6 mg per tray; loading concentration 0.64 μM; fluorescent lamp
# Procedure: (§1) Laboratory strains of Anopheles stephensi, M and S (Kisumu), chromosomal forms of An. gambiae, An. arabiensis and Aedes aegypti, as well as field-collected Anopheles spp. and Aedes spp. larvae were used. Laboratory mosquitoes were maintained at 28-30° C., >90% RH and a photoperiod of 12 h. Light intensity ranged between 0.5 mW/cm^2 (fluorescent lamp) and 185 mW/cm^2 (sunlight).
# (§2) C12 or C14 porphyrin solutions at 5-100 μM concentrations were pre-incubated at room temperature in the darkness with 15-60 mg of carrier (either Eudragit or ground mouse food or cat food) for 4-12 hours under gentle shaking. After incubation the solutions were filtered, and the loaded carrier was dried at room temperature or in an oven (45° C.).
# (§3) One litre capacity, transparent plastic trays containing wells with each 500 ml water and 6-60 mg of the composition of the present invention were prepared. Batches of 60-100 L2, L3 or L4 larvae were introduced into the trays after sunset (or artificial light off). Larval mortality was evaluated the next day starting from 8.00 am, and the time required to reach at least 90% mortality was recorded. Larvae not moving or not showing an escaping response at probing were defined as dead or dying, and counted together (Tables 2 and 3). Pupae occasionally formed throughout the irradiation time were discarded and excluded from the evaluation. An equal number of batches of larvae prepared in the same way were kept in continuous darkness and mortality was evaluated similarly, to assess toxicity in the dark.
# (§4) Light intensity range: 0.5-185 mW/cm^2.
# An. gambiae (M) = assay: Laboratory-scale tray larvicide test; type: in vivo; conditions: sun
# Procedure: as §1, §2, §3, §4
# [2] = system: Anopheles gambiae Kisumu strain (S); assay: Laboratory-scale tray larvicide test; type: in vivo; conditions: sun
# Procedure: as §1, §2, §3, §4
# An. arabiensis = assay: Laboratory-scale tray larvicide test; type: in vivo; conditions: sun
# Procedure: as §1, §2, §3, §4
# Tetrahymena thermophila = conditions: in vivo
# Procedure: (§5) The dark- and photo-toxic activity of free C12 (wherein C12 means porphyrin C12) was tested on representative components of mosquito's breeding sites biota, the results are shown in table 6, as minimal photosensitizing dose (μM). […] Sensitivity to phototreatment (visible light, 10 mW/cm^2) was obviously different, as C. inflate trophozoites and even cysts were highly photosensitive, while Artemia franciscana nauplii appeared to be highly resistant.
# [3] = system: Anopheles spp + Aedes spp; assay: Tray larvicide test on field-collected mosquitoes; type: in vivo; conditions: carrier Eudragit; 30 mg per tray; loading concentration 50 μM; sunlight
# Procedure: as §1, §2, §3
# (§6) Each result derives from an independent, representative experiment. Light source: sunlight in all cases, intensity range: 4-185 mW/cm^2
# Anopheles spp = assay: Tray larvicide test on field-collected mosquitoes; type: in vivo; conditions: sunlight
# Procedure: as §1, §2, §3, §6
# Artemia franciscana [4] = assay: Effect of free porphyrin on non-target organisms of aqueous habitats; type: in vivo; conditions: 1 h irradiation, fluorescent lamp
# Procedure: (§7) The effect of free porphyrin, wherein porphyrin means porphyrin C12, dissolved in water on the photosensitivity of potential aqueous non-target organisms was evaluated on Colpoda inflata, Artemia franciscana and Daphnia magna, a protozoan and two crustacean organisms frequently found in aqueous environments. The mortality data were recorded after 1 h irradiation with visible light emitted by a fluorescent lamp.
# Colpoda inflata = assay: as above; type: in vivo; conditions: 1 h irradiation, fluorescent lamp
# Procedure: as §7
# Daphnia magna [5] = assay: as above; type: in vivo; conditions: 1 h irradiation, fluorescent lamp
# Procedure: as §7
# Artemia franciscana [6] = assay: Dark- and photo-toxic activity of free C12 on breeding site biota; type: in vivo; conditions: nauplii; 1 h incubation; visible light 10 mW/cm^2
# Procedure: as §5
# [7] = system: Chlamydomonas reinhardtii; assay: as above; type: in vivo; conditions: vegetative cells; 1 h incubation; visible light 10 mW/cm^2
# Procedure: as §5
# Daphnia magna [8] = assay: as above; type: in vivo; conditions: young individuals; 1 h incubation; visible light 10 mW/cm^2
# Procedure: as §5
# Culex sp. = conditions: cited from earlier work
# [9] = carrier Eudragit, 15 mg per tray, loading concentration 25 μM
# [10] = carrier cat food, 30 mg per tray, loading concentration 50 μM
# [11] = carrier Eudragit, 30 mg per tray, loading concentration 25 μM
# [12] = carrier Eudragit, 30 mg per tray, loading concentration 50 μM
molecule,measurement,setting,value
"CCCCCCCCCCCC[n+]1ccc(-c2c3nc(c(-c4cc[n+](C)cc4)c4ccc([nH]4)c(-c4cc[n+](C)cc4)c4nc(c(-c5cc[n+](C)cc5)c5ccc2[nH]5)C=C4)C=C3)cc1 [C12, meso-tri(N-methyl-pyridyl), mono(N-dodecyl-pyridyl)porphine]",decrease of porphyrin concentration (photo-bleaching),[1],up to 50%
same,Time to reach ≧90% mortality,An. stephensi,6 h
same,Time to reach ≧90% mortality,An. gambiae (M); [9],0.5 h
same,Time to reach ≧90% mortality,An. gambiae (M); [10],3 h
same,Time to reach ≧90% mortality,[2]; [9],0.5 h
same,Time to reach ≧90% mortality,"[2]; carrier Eudragit, 15 mg per tray, loading concentration 50 μM",0.5 h
same,Time to reach ≧90% mortality,[2]; [11],0.5 h
same,Time to reach ≧90% mortality,[2]; [12],0.5 h
same,Time to reach ≧90% mortality,"[2]; carrier Eudragit, 60 mg per tray, loading concentration 50 μM",0.5 h
same,Time to reach ≧90% mortality,"[2]; carrier cat food, 30 mg per tray, loading concentration 25 μM",8 h
same,Time to reach ≧90% mortality,[2]; [10],0.5 h
same,Time to reach ≧90% mortality,"[2]; carrier cat food, 30 mg per tray, loading concentration 100 μM",0.5 h
same,Time to reach ≧90% mortality,"[2]; carrier cat food, 60 mg per tray, loading concentration 100 μM",0.5 h
same,Time to reach ≧90% mortality,"An. arabiensis; carrier Eudragit, 15 mg per tray, loading concentration 5 μM",3 h
same,Time to reach ≧90% mortality,An. arabiensis; [12],0.5 h
same,Time to reach ≧90% mortality,An. arabiensis; [10],3 h
same,minimal photosensitizing dose,Tetrahymena thermophila,3.0 µM
same,Time to reach ≧90% mortality,[3],0.5 h
same,Time to reach ≧90% mortality,"Anopheles spp; carrier Eudragit, 15 mg per tray, loading concentration 15 μM",3 h
same,Time to reach ≧90% mortality,Anopheles spp; [11],0.5 h
same,Time to reach ≧90% mortality,Anopheles spp; [10],3 h
same,LD-50,Artemia franciscana [4],>10.0 µM
same,Mortality (%),Artemia franciscana [4]; porphyrin dose 6.0 μM,20%
same,LD-50,Colpoda inflata; cysts,>1.0 µM
same,Mortality (%),"Colpoda inflata; cysts, porphyrin dose 1.0 μM",20%
same,LD-50,Colpoda inflata; trophozoites,1.0 µM
same,Mortality (%),"Colpoda inflata; trophozoites, porphyrin dose 0.6 μM",40%
same,LD-50,Daphnia magna [5],0.3 µM
same,Mortality (%),Daphnia magna [5]; porphyrin dose 0.3 μM,50%
same,minimal photosensitizing dose,Artemia franciscana [6],>10.0 µM
same,minimal photosensitizing dose,[7],0.2 µM
same,minimal photosensitizing dose,Daphnia magna [8],0.3 µM
CC1=C(CCC(=O)O)c2cc3[nH]c(cc4nc(cc5[nH]c(cc1n2)c(C)c5C(C)O)C(C)=C4C(C)O)c(C)c3CCC(=O)O (stereo not shown) [hematoporphyrin],mortality,"Culex sp.; semi-field, 10^−5 M, after 3 days under natural sunlight",100%
chlorophyllin,LD50,"Culex sp.; laboratory, added to larval breeding water, after 3 h exposure to light intensity 146.66 W/m^2",6.88 g/L
